pIC50: −log10 of the molar value. Calls of active or inactive are those of the source. No cut-off for these calls is given here.

The term inhibition denotes the share of the control response that was lost under treatment. The pIC50 is −log10 of the IC50, conventionally taken in molar units. Read a high pIC50 as a low IC50.

Chain of Dual specificity mitogen-activated protein kinase kinase 1 (Q02750 whole entry): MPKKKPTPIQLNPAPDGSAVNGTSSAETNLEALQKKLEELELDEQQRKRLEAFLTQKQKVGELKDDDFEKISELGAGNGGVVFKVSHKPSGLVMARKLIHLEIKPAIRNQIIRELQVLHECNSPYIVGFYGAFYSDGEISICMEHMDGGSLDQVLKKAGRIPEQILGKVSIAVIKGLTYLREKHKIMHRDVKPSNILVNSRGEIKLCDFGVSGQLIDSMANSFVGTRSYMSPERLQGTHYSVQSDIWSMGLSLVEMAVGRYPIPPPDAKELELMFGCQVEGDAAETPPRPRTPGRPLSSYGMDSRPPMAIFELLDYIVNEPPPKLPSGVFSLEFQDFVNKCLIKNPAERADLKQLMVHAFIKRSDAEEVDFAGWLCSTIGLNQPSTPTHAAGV

One assay relates to MIA PaCa-2. In words: Antiproliferative activity against human MIA PaCa-2 cells harboring KRAS G12C mutant at 0.1 uM incubated for 72 hrs by CCK8 assay relative to control. In kind it is functional.
Conditions: not given
In general terms: Formazan colour is commonly taken as a measure of viable cells.
`CC(C)CNS(=O)(=O)Nc1cccc(Cn2cnc3c(F)c(Nc4ccc(C5CC5)cc4F)c(C(=O)NOCCO)cc32)c1` yielded an inhibition at 0.1 µM of 55.8%.
In the case of `CNS(=O)(=O)Nc1cccc(Cn2cnc3c(F)c(Nc4ccc(C)cc4F)c(C(=O)NOCCO)cc32)c1F`, the inhibition at 0.1 µM was determined as 57.7%.
The same measure, in the same setting: the figure for `CCNS(=O)(=O)Nc1cccc(Cn2cnc3c(F)c(Nc4ccc(C)cc4F)c(C(=O)NOCCO)cc32)c1F` is 55.7%; for `CNS(=O)(=O)Nc1nccc(Cc2c(C)c3ccc(Oc4ncccn4)cc3oc2=O)c1F` [AVUTOMETINIB] it is 59.6%.
`CCNS(=O)(=O)Nc1cccc(Cn2cnc3c(F)c(Nc4ccc(I)cc4F)c(C(=O)NOCCO)cc32)c1Cl` showed an inhibition at 0.1 µM of 43.1%.
Still for that read-out and setting: the figure for `CCNS(=O)(=O)Nc1cccc(Cn2cnc3c(F)c(Nc4ccc(I)cc4F)c(C(=O)NOCCO)cc32)c1F` is 65.3%; for `CCNS(=O)(=O)Nc1cc(F)cc(Cn2cnc3c(F)c(Nc4ccc(C5CC5)cc4F)c(C(=O)NOCCO)cc32)c1` it is 76.5%.

For a further assay, the system named is HCT-116. In words: Antiproliferative activity against human HCT-116 cells harboring KRAS G13D mutant incubated for 72 hrs by CCK8 assay. It is filed as functional, cell-based. To be noted: HCT-116, 72 h.
For `CC(C)CNS(=O)(=O)Nc1cccc(Cn2cnc3c(F)c(Nc4ccc(C5CC5)cc4F)c(C(=O)NOCCO)cc32)c1`, the negative-log IC50 (pIC50) was 6.37.
As for `CNS(=O)(=O)Nc1cccc(Cn2cnc3c(F)c(Nc4ccc(C)cc4F)c(C(=O)NOCCO)cc32)c1F`, the negative-log IC50 (pIC50) was 6.16.
`CCNS(=O)(=O)Nc1cccc(Cn2cnc3c(F)c(Nc4ccc(C)cc4F)c(C(=O)NOCCO)cc32)c1F`: the pIC50 is 6.34.
Same read-out and setting: the figure for `CNS(=O)(=O)Nc1nccc(Cc2c(C)c3ccc(Oc4ncccn4)cc3oc2=O)c1F` [AVUTOMETINIB] is 6.13; for `CCNS(=O)(=O)Nc1cccc(Cn2cnc3c(F)c(Nc4ccc(I)cc4F)c(C(=O)NOCCO)cc32)c1Cl` it is 6.42.
In the case of `CCNS(=O)(=O)Nc1cccc(Cn2cnc3c(F)c(Nc4ccc(I)cc4F)c(C(=O)NOCCO)cc32)c1F`, the negative logarithm of the IC50 (pIC50) was 6.69. This pIC50 lies 0.27 log units higher than the previous one.
Consider `CCNS(=O)(=O)Nc1cc(F)cc(Cn2cnc3c(F)c(Nc4ccc(C5CC5)cc4F)c(C(=O)NOCCO)cc32)c1`, for which the negative-log IC50 (pIC50) is 6.85.

The target of the next assay is Dual specificity mitogen-activated protein kinase kinase; MEK1/2 (Homo sapiens) (UniProt P36507+Q02750). Nature of the assay: Inhibition of MEK phosphorylation in human MIA PaCa-2 cells upto 1 uM incubated for 4 hrs by Western blot analysis. In kind it is cell-based.
Chain of Dual specificity mitogen-activated protein kinase kinase; MEK1/2 (Homo sapiens) (P36507 whole entry, looked up): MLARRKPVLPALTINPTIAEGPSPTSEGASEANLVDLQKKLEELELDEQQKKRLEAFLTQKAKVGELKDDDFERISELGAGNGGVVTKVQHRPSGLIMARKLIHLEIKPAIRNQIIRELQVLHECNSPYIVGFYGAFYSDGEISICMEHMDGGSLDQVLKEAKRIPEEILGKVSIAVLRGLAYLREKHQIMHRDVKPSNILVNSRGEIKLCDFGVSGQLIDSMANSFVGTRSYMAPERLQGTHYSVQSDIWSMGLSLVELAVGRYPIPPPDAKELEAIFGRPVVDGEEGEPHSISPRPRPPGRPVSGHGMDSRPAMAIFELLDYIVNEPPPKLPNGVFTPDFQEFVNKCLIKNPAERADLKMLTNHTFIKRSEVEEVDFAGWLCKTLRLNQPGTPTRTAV
Chain of Dual specificity mitogen-activated protein kinase kinase; MEK1/2 (Homo sapiens) (Q02750 whole entry, looked up): as the sequence (Q02750 whole entry) above
Conditions: not given
(Immunoblotting shows a protein as a band on a membrane.)
As to `CNS(=O)(=O)Nc1nccc(Cc2c(C)c3ccc(Oc4ncccn4)cc3oc2=O)c1F` [AVUTOMETINIB], the inhibition entry was “Active”.

In the next assay the target is Serine/threonine-protein kinase B-raf (Homo sapiens, UniProt P15056). In words: Inhibition of BRAF (unknown origin) assessed as remaining activity at 0.1 uM relative to control.
Chain of Serine/threonine-protein kinase B-raf (P15056 whole entry): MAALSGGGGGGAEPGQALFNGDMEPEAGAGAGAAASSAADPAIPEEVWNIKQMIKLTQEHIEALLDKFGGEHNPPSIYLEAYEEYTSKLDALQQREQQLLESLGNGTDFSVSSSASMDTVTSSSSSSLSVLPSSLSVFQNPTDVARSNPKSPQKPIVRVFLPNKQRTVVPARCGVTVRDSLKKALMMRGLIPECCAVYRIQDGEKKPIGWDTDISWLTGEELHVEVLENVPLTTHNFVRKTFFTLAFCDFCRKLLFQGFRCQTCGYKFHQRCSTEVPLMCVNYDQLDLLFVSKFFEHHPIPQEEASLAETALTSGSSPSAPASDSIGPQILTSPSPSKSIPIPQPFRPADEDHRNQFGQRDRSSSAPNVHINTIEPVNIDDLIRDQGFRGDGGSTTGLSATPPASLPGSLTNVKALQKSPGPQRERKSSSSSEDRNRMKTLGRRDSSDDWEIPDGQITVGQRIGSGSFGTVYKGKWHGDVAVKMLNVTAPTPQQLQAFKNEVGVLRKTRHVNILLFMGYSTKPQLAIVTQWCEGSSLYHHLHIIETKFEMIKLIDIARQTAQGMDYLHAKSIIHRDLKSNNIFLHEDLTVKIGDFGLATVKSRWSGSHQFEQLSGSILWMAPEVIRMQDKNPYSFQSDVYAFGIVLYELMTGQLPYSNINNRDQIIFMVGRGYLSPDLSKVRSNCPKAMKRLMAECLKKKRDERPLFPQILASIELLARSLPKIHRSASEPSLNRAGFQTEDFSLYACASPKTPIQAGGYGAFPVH
Conditions: not given
For the molecule `CC(C)CNS(=O)(=O)Nc1cccc(Cn2cnc3c(F)c(Nc4ccc(C5CC5)cc4F)c(C(=O)NOCCO)cc32)c1`, the Activity turned out to be 5%.
For `CNS(=O)(=O)Nc1cccc(Cn2cnc3c(F)c(Nc4ccc(C)cc4F)c(C(=O)NOCCO)cc32)c1F`, the Activity is 3%.
With `CCNS(=O)(=O)Nc1cccc(Cn2cnc3c(F)c(Nc4ccc(C)cc4F)c(C(=O)NOCCO)cc32)c1F`, the Activity was determined as 4%.
The same measure, in the same setting: the figure for `CCNS(=O)(=O)Nc1cccc(Cn2cnc3c(F)c(Nc4ccc(I)cc4F)c(C(=O)NOCCO)cc32)c1Cl` is 0%; for `CCNS(=O)(=O)Nc1cccc(Cn2cnc3c(F)c(Nc4ccc(I)cc4F)c(C(=O)NOCCO)cc32)c1F` it is 1%; for `CCNS(=O)(=O)Nc1cc(F)cc(Cn2cnc3c(F)c(Nc4ccc(C5CC5)cc4F)c(C(=O)NOCCO)cc32)c1` it is 5%.

The test system of a further assay is MIA PaCa-2. In words: Antiproliferative activity against human MIA PaCa-2 cells harboring KRAS G12C mutant incubated for 72 hrs by CCK8 assay. In kind it is functional, cell-based. To be noted: MIA PaCa-2, 72 h.
The molecule `CC(C)CNS(=O)(=O)Nc1cccc(Cn2cnc3c(F)c(Nc4ccc(C5CC5)cc4F)c(C(=O)NOCCO)cc32)c1` had a negative logarithm of the IC50 (pIC50) of 7.32.
Regarding `CNS(=O)(=O)Nc1cccc(Cn2cnc3c(F)c(Nc4ccc(C)cc4F)c(C(=O)NOCCO)cc32)c1F`, the pIC50 was 6.06.
For `CCNS(=O)(=O)Nc1cccc(Cn2cnc3c(F)c(Nc4ccc(C)cc4F)c(C(=O)NOCCO)cc32)c1F`, the pIC50 is 6.66.
The molecule `CNS(=O)(=O)Nc1nccc(Cc2c(C)c3ccc(Oc4ncccn4)cc3oc2=O)c1F` [AVUTOMETINIB] had a pIC50 of 6.94. This pIC50 is 0.28 log units higher than that of the molecule before.
Turning to `CCNS(=O)(=O)Nc1cccc(Cn2cnc3c(F)c(Nc4ccc(I)cc4F)c(C(=O)NOCCO)cc32)c1Cl`, the pIC50 was 6.90.
On the same count and under the same terms, the figure for `CCNS(=O)(=O)Nc1cccc(Cn2cnc3c(F)c(Nc4ccc(I)cc4F)c(C(=O)NOCCO)cc32)c1F` is 7.37; for `CCNS(=O)(=O)Nc1cc(F)cc(Cn2cnc3c(F)c(Nc4ccc(C5CC5)cc4F)c(C(=O)NOCCO)cc32)c1` it is 7.49.

A further assay has as its target Dual specificity mitogen-activated protein kinase kinase 1 (Homo sapiens, UniProt Q02750). Nature of the assay: Inhibition of MEK1 (unknown origin) assessed as remaining activity at 0.1 uM relative to control.
Conditions: not given
With `CC(C)CNS(=O)(=O)Nc1cccc(Cn2cnc3c(F)c(Nc4ccc(C5CC5)cc4F)c(C(=O)NOCCO)cc32)c1`, the Activity was 80%.
For `CNS(=O)(=O)Nc1cccc(Cn2cnc3c(F)c(Nc4ccc(C)cc4F)c(C(=O)NOCCO)cc32)c1F`, the Activity is 58%.
For `CCNS(=O)(=O)Nc1cccc(Cn2cnc3c(F)c(Nc4ccc(C)cc4F)c(C(=O)NOCCO)cc32)c1F`, the Activity was found to be 54%.
`CCNS(=O)(=O)Nc1cccc(Cn2cnc3c(F)c(Nc4ccc(I)cc4F)c(C(=O)NOCCO)cc32)c1Cl`: the Activity was 9%.
Still for that read-out and setting: the figure for `CCNS(=O)(=O)Nc1cccc(Cn2cnc3c(F)c(Nc4ccc(I)cc4F)c(C(=O)NOCCO)cc32)c1F` is 8%; for `CCNS(=O)(=O)Nc1cc(F)cc(Cn2cnc3c(F)c(Nc4ccc(C5CC5)cc4F)c(C(=O)NOCCO)cc32)c1` it is 59%.

For the next assay, the system named is HCT-116. In words: Antiproliferative activity against human HCT-116 cells harboring KRAS G13D mutant at 1 uM incubated for 72 hrs by CCK8 assay relative to control. It is filed as functional.
Conditions: not given
`CC(C)CNS(=O)(=O)Nc1cccc(Cn2cnc3c(F)c(Nc4ccc(C5CC5)cc4F)c(C(=O)NOCCO)cc32)c1` displayed an inhibition at 1 µM of 60.2%.
For `CNS(=O)(=O)Nc1cccc(Cn2cnc3c(F)c(Nc4ccc(C)cc4F)c(C(=O)NOCCO)cc32)c1F`, the inhibition at 1 µM came to 74.8%.
In the case of `CCNS(=O)(=O)Nc1cccc(Cn2cnc3c(F)c(Nc4ccc(C)cc4F)c(C(=O)NOCCO)cc32)c1F`, the inhibition at 1 µM was found to be 57.6%.
Take `CNS(=O)(=O)Nc1nccc(Cc2c(C)c3ccc(Oc4ncccn4)cc3oc2=O)c1F` [AVUTOMETINIB]: the inhibition at 1 µM was determined as 56.1%.
For the molecule `CCNS(=O)(=O)Nc1cccc(Cn2cnc3c(F)c(Nc4ccc(I)cc4F)c(C(=O)NOCCO)cc32)c1Cl`, at 1 µM the inhibition was 61.4%.
With `CCNS(=O)(=O)Nc1cccc(Cn2cnc3c(F)c(Nc4ccc(I)cc4F)c(C(=O)NOCCO)cc32)c1F`, the inhibition at 1 µM is 69.1%.
Take `CCNS(=O)(=O)Nc1cc(F)cc(Cn2cnc3c(F)c(Nc4ccc(C5CC5)cc4F)c(C(=O)NOCCO)cc32)c1`: at 1 µM the inhibition was 56.7%.

The values are drawn from ChEMBL document CHEMBL5584338, “Design, Synthesis, and Biological Evaluation of 5-Amino-4-fluoro-1H-benzo[d]imidazole-6-carboxamide Derivatives as Novel and Potential MEK/RAF Complex Inhibitors Based on the "Clamp" Strategy” (J Med Chem, 2024).
